Reference: patent US10206399B2, “Herbicidal composition comprising uracil compound as active ingredient” (Dongbu Farm Hannong Co., Ltd., priority 2012, dated 2019)
Where two headings read alike, the source gives them in different places.

Columns and labels:
Echinochloa crus [1] = assay: Paddy field farming herbicidal composition test, plant mortality; assay type: in vivo; conditions: Echinochloa; 5 g/ha; read-out: Echinochloa crus mortality (measured value)
Description: (§1) X is % damage by uracil compound (a) of formula 1 at the rate of application of p kg/ha; Y is % damage by conventional herbicidal compound (b) at the rate of application of q kg/ha; and E is the expected damage caused by compounds (a) and (b) at a rate of application of p and q kg/ha.
(§2) The expected activity for a given combination of two herbicides can be calculated using equation 1 above.

Digitaria sanguinalis [2] = assay: Dry field farming herbicidal composition test, plant mortality; assay type: in vivo
Description: as §1, §2

Echinochloa crus [3] = conditions: for Echinochloa crus mortality, measured value: 20 days after treatment; for plant mortality, measured value: Echinochloa crus
Description: as §1, §2

Capsella bursapastoris = assay: Dry field farming herbicidal composition test, plant mortality; assay type: in vivo; conditions: in % (unit assumed)
Description: as §1, §2

wild amaranth = assay: Nonselective composition of 1 uracil compound and 2 herbicidally active compounds, plant mortality; assay type: in vivo; conditions: Amaranthus caudatus, 480 h; 8 g ai/ha; read-out: Wild amaranth mortality (measured value)
Description: as §1, §2

rice plant = assay: Paddy field farming herbicidal composition test, plant mortality (crop)
Description: as §1, §2

Abutilon theophrasti [4] = assay: whole plant or invertebrate
Description: as §1, §2

Aeschynomene indica [5] = assay: Dry field farming herbicidal composition test, plant mortality; assay type: in vivo
Description: as §1, §2

Echinochloa crus [6] = assay: as above; assay type: in vivo
Description: as §1, §2

Porippa islandica = assay: as above; assay type: in vivo
Description: as §1, §2

Alopecurus aequalis = assay: as above; assay type: in vivo; conditions: in % (unit assumed)
Description: as §1, §2

ryegrass = assay: Nonselective composition of 1 uracil compound and 2 herbicidally active compounds, plant mortality; assay type: in vivo; conditions: 480 h; 8 g ai/ha; read-out: ryegrass mortality (measured value)
Description: as §1, §2

wheat = assay: Dry field farming herbicidal composition test, plant mortality (crop)
Description: as §1, §2

Lamium amplexicaule = assay: Dry field farming herbicidal composition test, plant mortality; assay type: in vivo; conditions: in % (unit assumed)
Description: as §1, §2

Digitaria sanguinalis [7] = conditions: for Digitaria sanguinalis mortality, measured value: 20 days after treatment
Description: as §1, §2

Ludwigia prostrate = assay: Paddy field farming herbicidal composition test, plant mortality; assay type: in vivo
Description: as §1, §2

Aeschynomene indica [8] = assay: whole plant or invertebrate
Description: as §1, §2

Monochoria vaginalis = assay: Paddy field farming herbicidal composition test, plant mortality; assay type: in vivo; conditions: Pontederia vaginalis, read-out: Monochoria vaginalis mortality (measured value)
Description: as §1, §2

Abutilon theophrasti [9] = assay: Dry field farming herbicidal composition test, plant mortality; assay type: in vivo; conditions: Abutilon theophrasti, read-out: Abutilon theophrasti mortality, measured value
Description: as §1, §2

Xanthium spinosum = assay: whole plant or invertebrate
Description: as §1, §2

[10] = 480 h, read-out: Abutilon theophrasti mortality, measured value
[11] = 480 h, read-out: Aeschynomene indica mortality, measured value
[12] = read-out: plant mortality, measured value, 4 g/ha
[13] = read-out: plant mortality, measured value, 8 g/ha
[14] = read-out: plant mortality, measured value, 16 g/ha
[15] = 480 h, read-out: Xanthium spinosum mortality, measured value

COC(=O)CCNC(=O)C(C)Sc1cc(-n2c(=O)cc(C(F)(F)F)n(C)c2=O)c(F)cc1Cl (stereo not drawn) [Compound 36, 3-[{2-[2-chloro-5-(3,6-dihydro-3-methyl-2,6-dioxo-4-trifluoromethyl-1(2H)-pyrimidinyl)-4-fluorophenylthio]-1-oxopropyl}amino]propionic acid methyl ester]
pest or weed control at 5 g/ha (Echinochloa crus [1]): 0% | Digitaria sanguinalis mortality, measured value (Digitaria sanguinalis [2]; 4 g/ha): 10% | pest or weed control at 1 g/ha (Digitaria sanguinalis [2]; Digitaria sanguinalis, 1 g/ha, read-out: Digitaria sanguinalis mortality, measured value): 0% | pest or weed control at 2 g/ha (Digitaria sanguinalis [2]; Digitaria sanguinalis, 2 g/ha, read-out: Digitaria sanguinalis mortality, measured value): 0% | pest or weed control at 4 g/ha (Digitaria sanguinalis [2]; Digitaria sanguinalis, 4 g/ha, read-out: Digitaria sanguinalis mortality, measured value): 10% | Data (measured value) Echinochloa crus (Echinochloa crus [3]; 4 g/ha): 0 | Echinochloa crus mortality, measured value (Echinochloa crus [3]; 4 g/ha): 0% | plant mortality, measured value (Echinochloa crus [3]; 4 g/ha): 0 | Data (measured value) Echinochloa crus (Echinochloa crus [3]; 8 g/ha): 5 | Echinochloa crus mortality, measured value (Echinochloa crus [3]; 8 g/ha): 5% | plant mortality, measured value (Echinochloa crus [3]; 8 g/ha): 5 | Echinochloa crus mortality, measured value (Echinochloa crus [3]; 16 g/ha): 10% | Data (measured value) Echinochloa crus (Echinochloa crus [3]; 20 g/ha): 17 | Echinochloa crus mortality, measured value (Echinochloa crus [3]; 20 g/ha): 17% | Data (measured value) Echinochloa crus (Echinochloa crus [3]; 40 g/ha): 37 | Echinochloa crus mortality, measured value (Echinochloa crus [3]; 40 g/ha): 37% | Data (measured value) Echinochloa crus (Echinochloa crus [3]; 80 g/ha): 61 | Echinochloa crus mortality, measured value (Echinochloa crus [3]; 80 g/ha): 61% | Corn mortality, measured value (corn; 1 g/ha): 0 | Corn mortality, measured value (corn; 2 g/ha): 0 | Corn mortality, measured value (corn; 4 g/ha): 1 | Capsella bursapastoris mortality, measured value (Capsella bursapastoris; 1 g/ha): 5 | Capsella bursapastoris mortality, measured value (Capsella bursapastoris; 2 g/ha): 25 | Capsella bursapastoris mortality, measured value (Capsella bursapastoris; 4 g/ha): 45 | pest or weed control at 8 g/ha (wild amaranth): 40% | Rice plant mortality (measured value) (rice plant; 5 g/ha): 0 | Rice plant mortality (measured value) (rice plant; 10 g/ha): 1 | mortality at 4 g/ha (Abutilon theophrasti [4]; [10]): 11% | mortality at 8 g/ha (Abutilon theophrasti [4]; [10]): 38% | mortality at 16 g/ha (Abutilon theophrasti [4]; [10]): 51% | mortality at 20 g/ha (Abutilon theophrasti [4]; [10]): 58% | mortality at 40 g/ha (Abutilon theophrasti [4]; [10]): 100% | mortality at 80 g/ha (Abutilon theophrasti [4]; [10]): 100% | pest or weed control at 4 g/ha (Abutilon theophrasti [4]; read-out: Data (measured value) Abutilon theophrasti, 4 g/ha): 15% | pest or weed control at 8 g/ha (Abutilon theophrasti [4]; read-out: Data (measured value) Abutilon theophrasti, 8 g/ha): 35% | pest or weed control at 16 g/ha (Abutilon theophrasti [4]; read-out: Data (measured value) Abutilon theophrasti, 16 g/ha): 47% | pest or weed control at 20 g/ha (Abutilon theophrasti [4]; read-out: Data (measured value) Abutilon theophrasti, 20 g/ha): 58% | pest or weed control at 40 g/ha (Abutilon theophrasti [4]; read-out: Data (measured value) Abutilon theophrasti, 40 g/ha): 100% | pest or weed control at 80 g/ha (Abutilon theophrasti [4]; read-out: Data (measured value) Abutilon theophrasti, 80 g/ha): 100% | Aeschynomene indica mortality, measured value (Aeschynomene indica [5]; 1 g/ha): 10% | Aeschynomene indica mortality, measured value (Aeschynomene indica [5]; 4 g/ha): 45% | pest or weed control at 1 g/ha (Aeschynomene indica [5]; Aeschynomene indica, 1 g/ha, read-out: Aeschynomene indica mortality, measured value): 10% | pest or weed control at 2 g/ha (Aeschynomene indica [5]; Aeschynomene indica, 2 g/ha, read-out: Aeschynomene indica mortality, measured value): 25% | pest or weed control at 4 g/ha (Aeschynomene indica [5]; Aeschynomene indica, 4 g/ha, read-out: Aeschynomene indica mortality, measured value): 45% | Echinochloa crus mortality, measured value (Echinochloa crus [6]; 4 g/ha): 5% | pest or weed control at 1 g/ha (Echinochloa crus [6]; Echinochloa, 1 g/ha, read-out: Echinochloa crus mortality, measured value): 0% | pest or weed control at 2 g/ha (Echinochloa crus [6]; Echinochloa, 2 g/ha, read-out: Echinochloa crus mortality, measured value): 0% | pest or weed control at 4 g/ha (Echinochloa crus [6]; Echinochloa, 4 g/ha, read-out: Echinochloa crus mortality, measured value): 5% | Porippa islandica mortality, measured value (Porippa islandica; 1 g/ha): 10 | Porippa islandica mortality, measured value (Porippa islandica; 2 g/ha): 30 | Porippa islandica mortality, measured value (Porippa islandica; 4 g/ha): 55 | Alopecurus aequalis mortality, measured value (Alopecurus aequalis; 1 g/ha): 0 | Alopecurus aequalis mortality, measured value (Alopecurus aequalis; 2 g/ha): 0 | Alopecurus aequalis mortality, measured value (Alopecurus aequalis; 4 g/ha): 10 | pest or weed control at 8 g/ha (ryegrass): 30% | Wheat mortality, measured value (wheat; 1 g/ha): 0 | Wheat mortality, measured value (wheat; 2 g/ha): 0 | Wheat mortality, measured value (wheat; 4 g/ha): 1 | Lamium amplexicaule mortality, measured value (Lamium amplexicaule; 1 g/ha): 10 | Lamium amplexicaule mortality, measured value (Lamium amplexicaule; 2 g/ha): 30 | Lamium amplexicaule mortality, measured value (Lamium amplexicaule; 4 g/ha): 50 | Data (measured value) Digitaria sanguinalis (Digitaria sanguinalis [7]; 4 g/ha): 0 | Digitaria sanguinalis mortality, measured value (Digitaria sanguinalis [7]; 4 g/ha): 0% | plant mortality, measured value (Digitaria sanguinalis [7]; 4 g/ha, Digitaria sanguinalis): 0 | Digitaria sanguinalis mortality, measured value (Digitaria sanguinalis [7]; 8 g/ha): 5% | Data (measured value) Digitaria sanguinalis (Digitaria sanguinalis [7]; 16 g/ha): 15 | Digitaria sanguinalis mortality, measured value (Digitaria sanguinalis [7]; 16 g/ha): 16% | Data (measured value) Digitaria sanguinalis (Digitaria sanguinalis [7]; 20 g/ha): 19 | Digitaria sanguinalis mortality, measured value (Digitaria sanguinalis [7]; 20 g/ha): 19% | Data (measured value) Digitaria sanguinalis (Digitaria sanguinalis [7]; 40 g/ha): 43 | Digitaria sanguinalis mortality, measured value (Digitaria sanguinalis [7]; 40 g/ha): 43% | Data (measured value) Digitaria sanguinalis (Digitaria sanguinalis [7]; 80 g/ha): 71 | Digitaria sanguinalis mortality, measured value (Digitaria sanguinalis [7]; 80 g/ha): 71% | Ludwigia prostrate mortality (measured value) (Ludwigia prostrate; 5 g/ha): 35% | Ludwigia prostrate mortality (measured value) (Ludwigia prostrate; 10 g/ha): 55% | mortality at 4 g/ha (Aeschynomene indica [8]; [11]): 26% | mortality at 8 g/ha (Aeschynomene indica [8]; [11]): 52% | mortality at 16 g/ha (Aeschynomene indica [8]; [11]): 69% | mortality at 20 g/ha (Aeschynomene indica [8]; [11]): 56% | mortality at 40 g/ha (Aeschynomene indica [8]; [11]): 100% | mortality at 80 g/ha (Aeschynomene indica [8]; [11]): 100% | pest or weed control at 4 g/ha (Aeschynomene indica [8]; read-out: Data (measured value) Aeschynomene indica, 4 g/ha): 19% | pest or weed control at 8 g/ha (Aeschynomene indica [8]; read-out: Data (measured value) Aeschynomene indica, 8 g/ha): 46% | pest or weed control at 16 g/ha (Aeschynomene indica [8]; read-out: Data (measured value) Aeschynomene indica, 16 g/ha): 61% | pest or weed control at 20 g/ha (Aeschynomene indica [8]; read-out: Data (measured value) Aeschynomene indica, 20 g/ha): 56% | pest or weed control at 40 g/ha (Aeschynomene indica [8]; read-out: Data (measured value) Aeschynomene indica, 40 g/ha): 100% | pest or weed control at 80 g/ha (Aeschynomene indica [8]; read-out: Data (measured value) Aeschynomene indica, 80 g/ha): 100% | pest or weed control at 4 g/ha (Aeschynomene indica [8]; [12]): 20% | pest or weed control at 8 g/ha (Aeschynomene indica [8]; [13]): 45% | pest or weed control at 16 g/ha (Aeschynomene indica [8]; [14]): 65% | pest or weed control at […] (Monochoria vaginalis; 2.5 g/ha): 5% | pest or weed control at 5 g/ha (Monochoria vaginalis; 5 g/ha): 30% | pest or weed control at 10 g/ha (Monochoria vaginalis; 10 g/ha): 50% | pest or weed control at 1 g/ha (Abutilon theophrasti [9]; 1 g/ha): 15% | pest or weed control at 2 g/ha (Abutilon theophrasti [9]; 2 g/ha): 35% | pest or weed control at 4 g/ha (Abutilon theophrasti [9]; 4 g/ha): 50% | mortality at 4 g/ha (Xanthium spinosum; [15]): 21% | mortality at 8 g/ha (Xanthium spinosum; [15]): 42% | mortality at 16 g/ha (Xanthium spinosum; [15]): 56% | mortality at 20 g/ha (Xanthium spinosum; [15]): 51% | mortality at 40 g/ha (Xanthium spinosum; [15]): 90% | mortality at 80 g/ha (Xanthium spinosum; [15]): 100% | pest or weed control at 4 g/ha (Xanthium spinosum; read-out: Data (measured value) Xanthium spinosum, 4 g/ha): 24% | pest or weed control at 8 g/ha (Xanthium spinosum; read-out: Data (measured value) Xanthium spinosum, 8 g/ha): 59% | pest or weed control at 16 g/ha (Xanthium spinosum; read-out: Data (measured value) Xanthium spinosum, 16 g/ha): 79% | pest or weed control at 20 g/ha (Xanthium spinosum; read-out: Data (measured value) Xanthium spinosum, 20 g/ha): 51% | pest or weed control at 40 g/ha (Xanthium spinosum; read-out: Data (measured value) Xanthium spinosum, 40 g/ha): 90% | pest or weed control at 80 g/ha (Xanthium spinosum; read-out: Data (measured value) Xanthium spinosum, 80 g/ha): 100% | pest or weed control at 4 g/ha (Xanthium spinosum; [12]): 25% | pest or weed control at 8 g/ha (Xanthium spinosum; [13]): 50% | pest or weed control at 16 g/ha (Xanthium spinosum; [14]): 70%
